# Test results from patent US5677322A, “Maillard reaction inhibitor” (Otsuka Pharmaceutical Co., Ltd., priority 1993, dated 1997).
# Tested on: Lysozyme
# Test: Inhibition of Maillard reaction: suppression of lysozyme dimer formation (lysozyme + fructose, SDS-PAGE)
# Assay type: biochemical
# Settings: inhibition ratio of test compound to aminoguanidine (positive control); lysozyme 10 mg/ml, fructose 100 mM, 0.2M sodium phosphate pH 7.4, 37° C., 3 days; dimer amount by SDS-PAGE
# Protocol: Lysozyme and fructose were dissolved in a buffer solution of 0.2M sodium phosphate (pH 7.4) to respectively give concentrations of 10 mg/ml and 100 mM. After incubating at 37° C. for 3 days, a definite amount of the mixture was taken out and electrophoresed with the use of SDS-PAGE. After the completion of the electrophoresis, the gel was stained with 0.2% Coomassie Brilliant Blue R-250 and the amount of the dimer thus formed was determined.
# Each of the test compounds was added before the initiation of the incubation and the effect of suppressing the formation of the dimer was examined at various concentrations, whereby the IC50 value was obtained. As a positive control, aminoguanidine, which is a known glycation inhibitor, was employed and the inhibition ratio of the test compound to aminoguanidine (IC50 of aminoguanidine/IC50 of test compound) was calculated.
row,Compound,IC50 of aminoguanidine/IC50 of test compound
1,"CC(C)=NN=C1NC(=O)C(CC(=O)Nc2ccc(F)c(F)c2)S1 (centres unmarked) [Test compound 49, 5-[N-(3,4-difluorophenyl)carbamoylmethyl]-2-isopropylidenehydrazonothiazolidin-4-one]",7.4
2,"CC(C)=NN=C1NC(=O)C(Cc2ccc(OCc3cccnc3)cc2)S1 (centres unmarked) [Test compound 48, 2-Isopropylidenehydrazono-5-[4-(3-pyridylmethoxy)benzyl]thiazolidin-4-one]",11.0
3,"CC(C)=NN=C1NC(=O)C(CC(=O)NCc2cccs2)S1 (centres unmarked) [Test compound 70, 2-isopropylidenehydrazono-5-[N-(2-thienylmethyl)carbamoylmethyl]thiazolidin-4-one]",36
4,"CC(C)=NN=C1NC(=O)C(CC(=O)Nc2ccc(OCc3ccccc3)cc2)S1 (centres unmarked) [Test compound 50, 5-[N-(4-benzyloxyphenyl)carbamoylmethyl]-2-isopropylidenehydrazonothiazolidin-4-one]",0.3
5,2-Isopropylidenehydrazino-4-methylthiazole [Test compound 23],3.5
6,2-Isopropylidenehydrazono-5-[N-(1-naphthyl)carbamoylmethyl]thiazolidin-4-one [Test compound 59],0.8
7,"CC(C)=NN=C1NC(=O)C(Cc2ccc(O)c(O)c2)N1 (centres unmarked) [Test compound 42, 5-(3,4-Dihydroxybenzyl)-2-isopropylidenehydrazonoimidazolidin-4-one]",78.9
8,"COc1ccc(NC(=O)CC2SC(=NN=C(C)C)NC2=O)c(C)c1 (centres unmarked) [Test compound 116, 2-Isopropylidenehydrazono-5-[N-(4-methoxy-2-methylphenyl)carbamoylmethyl]thiazolidin-4-one]",7.3
9,"CC(C)=NN=C1NC(=O)C(Cc2ccc(OCc3ccccc3)cc2)N1 (centres unmarked) [Test compound 1, 5-(4-Benzyloxybenzyl)-2-isopropylidenehydrazonoimidazolidin-4-one]",3.6
10,2-Isopropylidenehydrazono-5(S)-(N-phenylcarbamoylmethyl)thiazolidin-4-one [Test compound 110],3.1
11,5-(N-ethoxycarbonylmethylcarbamoylmethyl)-2-isopropylidenehydrazonothiazolidin-4-one [Test compound 19],2.5
12,"COC(=O)CC1NC(=NN=C(C)C)NC1=O (centres unmarked) [Test compound 43, 2-Isopropylidenehydrazono-5-methoxycarbonylmethylimidazolidin-4-one]",5.4
13,"COc1ccc(NC(=O)Cc2csc(NN=C(C)C)n2)cc1OC [Test compound 94, 4-[N-(3,4-dimethoxyphenyl)carbamoylmethyl]-2-isopropylidenehydrazinothiazole]",33.7
14,"O=C1CN2C(=NN1)NC(=O)C2COCc1ccccc1 (centres unmarked) [Test compound 29, 9-Benzyloxymethyl-1,4,5,7-tetraazabicyclo[4.3.0]nonan-5-ene-3,8-dione]",0.6
15,2-Isopropylidenehydrazono-5-(N-morpholinocarbamoylmethyl)thiazolidin-4-one [Test compound 69],1.1
16,O=C1NC(=NNS(=O)(=O)c2ccc(Br)cc2)NC1Cc1ccc(OCc2ccccc2)cc1 (centres unmarked) [Test compound 75],1.5
17,"CC(C)=NN=C1NC(=O)C(C)N1 (centres unmarked) [Test compound 2, 2-Isopropylidenehydrazono-5-methylimidazolidin-4-one]",2.8
18,5-[N-(5-carboxy-2-methylphenyl)carbamoylmethyl]-2-isopropylidenehydrazonothiazolidin-4-one [Test compound 91],1.6
19,5-[N-(2-carboxy-4-methylphenyl)carbamoylmethyl]-2-isopropylidenehydrazonothiazolidin-4-one [Test compound 54],4.2
20,"CC(C)=NN=C1NC(=O)C(CC(=O)Nc2c(C)cccc2C)S1 (centres unmarked) [Test compound 112, 5-[N-(2,6-dimethylphenyl)carbamoylmethyl]-2-isopropylidenehydrazonothiazolidin-4-one]",6.4
21,5-[N-(4-carboxyphenyl)carbamoylmethyl]-2-isopropylidenehydrazonothiazolidin-4-one [Test compound 16],3.1

row,Compound,IC50 of aminoguanidine/IC50 of test compound
1,"NN=C1NC(=O)C(CC(=O)Nc2ccccc2)S1 (centres unmarked) [Test compound 81, 2-Hydrazono-5-(N-phenylcarbamoylmethyl)thiazolidin-4-one]",0.8
2,"CC(C)=NN=C1NC(Cc2ccc(O)cc2)C(=O)N1Cc1ccccc1 (centres unmarked) [Test compound 9, 3-Benzyl-5-(4-hydroxybenzyl)-2-isopropylidenehydrazonoimidazolidin-4-one]",1.3
3,CC(C)=NN=C1NC(=O)C(C(C)C)N1 (centres unmarked) [compound 79],1.5
4,"CC(C)=NN=C1NC(=O)C(CC(=O)NC(C)c2ccccc2)N1 (centres unmarked) [Test compound 73, 2-Isopropylidenehydrazono-5-[N-(1-phenylethyl)carbamoylmethyl]imidazolidin-4-one]",1.3
5,"CC(C)=NN=C1NC(=O)C(Cc2c[nH]cn2)N1 (centres unmarked) [Test compound 78, 5-(4-Imidazolylmethyl)-2-isopropylidenehydrazonoimidazolidin-4-one]",4.0
6,2-Isopropylidenehydrazono-5-[N-(2-methoxycarbonyl-4-methylphenyl)carbamoylmethyl]imidazolidin-4-one [Test compound 96],3.9
7,4-[4-(4-Chlorobenzyloxy)phenyl]-2-isopropylidenehydrazinothiazole [Test compound 27],3.1
8,"COC(=O)c1ccccc1NC(=O)CC1SC(=NN=C(C)C)NC1=O (centres unmarked) [Test compound 93, 2-Isopropylidenehydrazono-5-[N-(2-methoxycarbonylphenyl)carbamoylmethyl]thiazolidin-4-one]",26
9,5-[N-(2-carboxyphenyl)carbamoylmethyl]-2-isopropylidenehydrazonothiazolidin-4-one [Test compound 92],0.94
10,"CC(C)=NN=C1NC(=O)C(Cc2ccccc2)N1 (centres unmarked) [Test compound 3, 5-Benzyl-2-isopropylidenehydrazonoimidazolidin-4-one]",1.6
11,"CC(C)=NN=C1NC(=O)C(Cc2ccc(OCC3CCCCC3)cc2)N1 (centres unmarked) [Test compound 35, 5-[4-(Cyclohexylmethyloxy)benzyl]-2-isopropylidenehydrazonoimidazolidin-4-one]",0.8
12,"CC(C)=NN=C1NC(=O)C(CC(=O)OCc2ccccc2)N1 (centres unmarked) [Test compound 44, 5-Benzyloxycarbonylmethyl-2-isopropylidenehydrazonoimidazolidin-4-one]",5.2
13,"O=C1NC(=NN=C2CCCC2)NC1Cc1ccc(OCc2ccccc2)cc1 (centres unmarked) [Test compound 77, 2-Cyclopentylidenehydrazono-5-(4-benzyloxybenzyl)imidazolidin-4-one]",2.2
14,2-Isopropylidenehydrazino-4-(3-pyridyl)thiazole [Test compound 89],53
15,"CC(C)=NN=C1NC(=O)C(Cc2ccc(O)cc2)N1 (centres unmarked) [Test compound 4, 5-(4-Hydroxybenzyl)-2-isopropylidenehydrazonoimidazolidin-4-one]",4.8
16,2-Cyclohexylmethylenehydrazono-5-(N-phenylcarbamoylmethyl)thiazolidin-4-one [Test compound 83],0.6
17,"2-Isopropylidenehydrazono-5-[N-(3,4,5-trichlorophenyl)carbamoylmethyl]thiazolidin-4-one [Test compound 57]",0.8
18,"CC(C)=NN=C1NC(=O)C(CC(C)C)N1 (centres unmarked) [Test compound 67, 2-Isopropylidenehydrazono-5-(2-methylpropyl)imidazolidin-4-one]",2.6
19,"COC(=O)c1c(F)cccc1NC(=O)CC1SC(=NN=C(C)C)NC1=O (centres unmarked) [Test compound 118, 5-[N-(3-fluoro-2-methoxycarbonylphenyl)carbamoylmethyl]-2-isopropylidenehydrazonothiazolidin-4-one]",6.1
20,"CC(C)=NN=C1NC(=O)C(CC(=O)NC(C)c2ccccc2)S1 (centres unmarked) [Test compound 72, 2-Isopropylidenehydrazono-5-[N-(1-phenylethyl)carbamoylmethyl]thiazolidin-4-one]",7.0
